Patent publication EP4660196A1, “CRYSTAL FORM OF COMPOUND, PREPARATION METHOD THEREFOR AND USE THEREOF” (Felicamed Biotechnology Co., Ltd., priority 2023, dated 2024)
Values joined by “and” are separate entries in the source; they are usually repeats but may differ in a detail not shown here. Identical values can stand only once. Counter-ions that a name gives are not always drawn. Like-named read-outs stand apart in the source and are kept apart here.

How the values were obtained:
[1] = for Carr index: (tapped density - bulk density) / tapped density; for Average angle of repose (°) / Average bulk density / Average tapped density: mean of three tests
Procedure: A method for testing the density and the tapped density included: (1) a certain mass of to-be-assessed sample was placed into a 5 mL measuring cylinder, and the volume at this moment was recorded. The bulk density was calculated by dividing the mass of the sample by the volume at this moment. (2) The measuring cylinder was slightly tapped 200 times, the final volume was recorded, and the tapped density was calculated by dividing the mass of the sample by the final volume. (3) Three parallel tests were conducted. A method for testing the angle of repose included: (1) a funnel was fixed vertically to a bottom surface, and the material was slowly placed into the funnel. (2) A well-proportioned cone of the material was formed on the bottom surface. The height and bottom surface diameter of the cone were measured. (3) Three parallel tests were conducted.
Angle of repose α = […], where h is the cone height, and D is the cone diameter.

[2] = Mechanical stability (grinding, tableting at 350 MPa, XRPD); type: physicochemical
[3] = Solid-state stability (XRPD, UPLC purity); details: for Crystal form Transform: XRPD; for Purity (area%): starting purity 99.82 (hydrochloride), 99.72 (free); for Area (%): UPLC main peak (#Peak 1, RRT 1.00)
[4] = type: physicochemical; details: 24 h; for S: solubility / pH: room temperature; for S: solubility: calculated as free form; for FC: crystal transfer: XRPD of solid; for pH: pH of filtrate
[5] = DVS
Procedure: DVS isotherms were collected on an SMS (Surface Measurement Systems) DVS Intrinsic. Relative humidity at 25°C was calibrated using the deliquescence points of LiCl, Mg(NO3)2, and KCl. Table 9 DVS testing parameters

[6] = Pharmacokinetics of hydrochloride crystal form A in Beagle dogs (intragastric); type: in vivo; details: dog
Procedure: Three 31-month-old male Beagle dogs used in this experiment were purchased from Beijing Marshall Bioresources Co., Ltd., with the animal qualification certificate No. 110318201100056783.
In this experiment, three male Beagle dogs were randomly selected for administration. All the animals were fasted for at least 12 h before administration and were fed again 4 h after administration. […] Table 28 Administration methods for animals
The blood samples from the animals were collected through the jugular vein, with a blood sample volume of 0.5 mL/time. All collected whole blood samples were placed in centrifuge tubes containing EDTA-K2, and the centrifuge tubes were turned upside down to allow the anticoagulant and blood to be fully mixed. All the blood samples were placed on wet ice before centrifugation and centrifuged at 1500 g for 10 min to separate plasma. The plasma samples were transferred to sample tubes and stored at -40°C to […] until analysis.
The drug concentration in the plasma of each Beagle dog was detected by an LC-MS/MS method. […]

[7] = type: physicochemical; details: 37°C; for S: solubility: calculated as free form; for pH: pH of filtrate
[8] = listed as hydrochloride crystal form A
[9] = single values of three parallel tests

In the case of CC[S@@](=N)(=O)C[C@H]1CC[C@H](N(C)c2ncnc3[nH]ccc23)CC1 [Hydrochloride crystal form A], the Carr index [1] is reported as 41%, the Carr index [1, 8] is reported as 41% and the “Average angle of repose (°)” value [1] is reported as 33.9 °. The “Average bulk density” value [1] was 0.14 g/mL, the “Average tapped density” value [1] was 0.24 g/mL and the “Average angle of repose (°)” value [1, 8] was 33.9 °. The “Average bulk density” value [1, 8] was 0.14 g/mL, the “Average tapped density” value [1, 8] was 0.24 g/mL and the “Angle of repose (°)” value [1, 9] was 33.7 ° and 37.2 ° and 30.8 °. For the same compound, the “Bulk density” value [1, 9] was 0.14 g/mL and 0.13 g/mL, the “Tapped density” value ([1]; tapped 200 times, single values of three parallel tests) was 0.23 g/mL and 0.25 g/mL and the “Results of mechanical stability After grinding” value ([2]; manual grinding) was “The crystal form remains unchanged”. For the same compound, the “Results of mechanical stability After tableting” value ([2]; tablet press, 350 MPa) was “The crystal form remains unchanged, but the crystallinity is slightly reduced”, the “Crystal form Transform” value ([3]; 25°C/60% RH/4 weeks, open) was “No” and the “Purity (area%)” value ([3]; 25°C/60% RH/4 weeks, open) was 99.88 area%. For the same compound, the “Crystal form Transform” value ([3]; 40°C/75% RH/4 weeks, open) was “No”, the “Purity (area%)” value ([3]; 40°C/75% RH/4 weeks, open) was 99.88 area% and the “Crystal form Transform” value ([3]; 80°C/1 d, closed) was “No”. The “Area (%)” value ([3]; 25°C/60% RH/4 weeks) was 99.88%, the “Area (%)” value ([3]; 40°C/75% RH/4 weeks) was 99.88% and the “Area (%)” value ([3]; 80°C/1 d) was 99.87%. The “S: solubility” value ([4]; Buffer (pH=2.0)) was over 9.5 mg/mL, the “S: solubility” value ([4]; Buffer (pH=7.4)) was 2.5 mg/mL and the “FC: crystal transfer” value ([4]; Buffer (pH=7.4)) was “Yes”. The “FC: crystal transfer” value ([4]; Buffer (pH=7.4), listed as hydrochloride crystal form A) was “transformed into the free crystal form A”, the pH ([4]; Buffer (pH=2.0)) was 3.5 and the pH ([4]; Buffer (pH=4.5)) was 4.4. The pH ([4]; Buffer (pH=7.4)) was 6.2, the “Hygroscopic weight gain (wt%) at 25°C/80% RH” value [5] was 0.47 wt% and the “Hygroscopic weight gain (wt%) at 25°C/80% RH” value [5, 8] was 0.47 wt%. The clinical observation ([6]; in vivo) was “no obvious abnormalities were found”, the k el ([6]; plasma, po, 6 mg/kg) was 5.39e-05 s⁻¹ and the “S: solubility” value ([7]; FaSSIF, 1 h, 60 min) was over 9.5 mg/mL. For the same compound, the “S: solubility” value ([7]; FaSSIF, 2 h, 120 min) was over 9.7 mg/mL, the “S: solubility” value ([7]; FaSSIF, 4 h, 240 min) was over 9.8 mg/mL and the “S: solubility” value ([7]; FaSSIF, 24 h, 1440 min) was over 9.6 mg/mL. The “S: solubility” value ([7]; FeSSIF, 1 h, 60 min) was over 10.4 mg/mL, the “S: solubility” value ([7]; FeSSIF, 2 h, 120 min) was over 10.2 mg/mL and the “S: solubility” value ([7]; FeSSIF, 4 h, 240 min) was over 10.2 mg/mL. For the same compound, the “S: solubility” value ([7]; FeSSIF, 24 h, 1440 min) was over 10.0 mg/mL, the “S: solubility” value ([7]; H2O, 1 h, 60 min) was over 9.3 mg/mL and the “S: solubility” value ([7]; H2O, 4 h, 240 min) was over 9.5 mg/mL. For the same compound, the “S: solubility” value ([7]; SGF, 1 h, 60 min) was over 9.8 mg/mL, the “S: solubility” value ([7]; SGF, 2 h, 120 min) was over 9.9 mg/mL and the “S: solubility” value ([7]; SGF, 4 h, 240 min) was over 9.8 mg/mL. For the same compound, the “S: solubility” value ([7]; SGF, 24 h, 1440 min) was over 10.3 mg/mL, the pH ([7]; FaSSIF, 1 h) was 5.0 and the pH ([7]; FaSSIF, 2 h) was 5.1. For the same compound, the pH ([7]; FaSSIF, 4 h) was 5.1, the pH ([7]; FaSSIF, 24 h) was 5.0 and the pH ([7]; FeSSIF, 1 h) was 4.9. It also gave a pH ([7]; FeSSIF, 2 h) of 4.9, a pH ([7]; FeSSIF, 4 h) of 4.9 and a pH ([7]; FeSSIF, 24 h) of 4.8. It also gave a pH ([7]; H2O, 1 h) of 4.0, a pH ([7]; H2O, 2 h) of 4.0 and a pH ([7]; H2O, 4 h) of 4.0. It also gave a pH ([7]; H2O, 24 h) of 4.0, a pH ([7]; SGF, 1 h) of 2.9 and a pH ([7]; SGF, 2 h) of 3.0. The pH ([7]; SGF, 4 h) was 3.0 and the pH ([7]; SGF, 24 h) was 2.9.
